Test results published in patent US12109305B2, “Materials architecture for gastric residence systems” (Lyndra Therapeutics, Inc., priority 2016, dated 2024).

Experiment: Degradation of time-dependent coupling polymer components in simulated gastric fluid
Assay type: physicochemical
Details: seven days
From the text: Additional preferred polymers for use as coupling polymers are time-dependent polymers, that is, polymers that degrade in a time-dependent manner in the gastric environment.

SMILES: CC(=O)OCC(COC(C)=O)OC(C)=O [triacetin]
- degradation / retention of strength in simulated gastric fluid: degrades in a time-dependent manner
